# Patent US11166464B2, “Self-assembled active agents” (priority 2017, dated 2021)
# Marks after values point to notes of the source that are not given here.
# Key:
# [1] = test system: A. brasiliensis ATCC16404; assay: MIC of aminoguanidine-aldehyde adducts, actives dissolved in all-purpose cleaner and diluted in MH broth; type: cell-based, Aspergillus brasiliensis; conditions: aminoguanidine adduct of the listed aldehyde; 4 × 10^5 spores/mL starting spore counts; Table 4
# Protocol: General procedure for preparation of actives: Complexes were formed by treating 20 mg of aldehyde or ketone with 180 mg of aminoguanidine HCl stock solution (37 wt % aminoguanidine HCl in dH2O) and heating at 60° C. for 48 h. The resulting product mixtures were subsequently screened for antimicrobial activity.
# [2] = test system: Aspergillus brasillensis, ATCC16404; assay: Preservative test in home cleaning formulations; type: cell-based, Aspergillus brasiliensis; conditions: aminoguanidine adducts of the named hydrophilic aldehydes
# [3] = test system: Aspergillus brasiliensis (ATCC 16404); assay: Viability of microbes in formula over time (log reduction in cell count); type: cell-based; conditions: seven days, initial 5 × 10^6 cells/mL; for Log Reduction in APC formula: aminoguanidine complex of the listed aldehyde at 0.1 wt % in all-purpose cleaner; for Log Reduction in MDC formula: aminoguanidine complex of the listed aldehyde at 0.1 wt % in manual dish formula
# Protocol: […] The total volume of the mixture was 5 mL. The inoculated mixture was kept in a shaker at 30° C. for 7 days. Microorganism viability was determined by plating […] of inoculated mixture on MH agar plates on days 0, 3, and 7.
# A. Brasiliensis cell counts were monitored and counted over seven days.
# Pseudomonas aeruginosa = assay: MIC and synergy (1/FICI) in cation-adjusted Mueller-Hinton broth, abs600 after 24 h; type: cell-based; conditions: for MIC (wt %): component alone, 24 h, 37° C.
# Protocol: (§1) To compare antimicrobial efficacy of self-assembled complexes to their components, fractional inhibitory concentration indices (FICIs) were calculated from measured minimum inhibitory concentrations (MICs) against Pseudomonas aeruginosa and Escherichia coli. The MIC of each substance was determined according to standard guidelines in cation-adjusted Mueller-Hinton broth at a total volume of ˜100 μl with test concentrations decreasing two-fold to span the empirically-determined MIC (J. Med. Chem., 59: 2126-2138 (2016)). Wells contained starting microbe concentrations of approximately 10^7 cells/mL. Absorbance at 600 nm (abs600) was determined immediately after inoculation using a 96 well plate reader. Plates were incubated at 37° C. and abs600 measured after 24 hours. For the purposes of these experiments, minimum inhibitory concentrations are defined as the minimum concentration observed to inhibit microbial growth over this time span, with a change in abs600 less than or equal to 0.1.
# Following MIC testing, FICI were calculated as shown in Equation 1: […]
# The FICI can be used to quantify the synergy between two components (X and Y). Specifically, 1/FICI can be used as a measure of synergy, interpreted as factors by which the potency of a given combination is greater than the sum of its parts (see Journal of Antimicrobial Chemotherapy, 52:1 (2003)). For example, in the present invention, synergy may be found when the effective amount of the self-assembled active agent is lower than the sum of the effective amounts of the two or more component molecules.
# (§2) For the data in Table 2, when multiple components were used to form a complex, the amine component was present in excess of a 1:1 molar ratio.
# The MICs determined as per above were then used to calculate FICIs. Note that 1/FICI values varied with subcomponent ratio; unless otherwise noted, the values shown in Table 3 represent a molar ratio of 6:1, amine:aldehyde.
# Escherichia coli = assay: MIC in cation-adjusted Mueller-Hinton broth, abs600 after 24 h; type: cell-based; conditions: amine + aldehyde combined, amine in excess of 1:1 molar ratio, E. coli
# Protocol: as §1, §2
# [4] = test system: A. brasiliensis ATCC16404; assay: MIC of aminoguanidine-aldehyde adducts, actives dissolved in all-purpose cleaner and diluted in MH broth; type: cell-based, Aspergillus brasiliensis; conditions: subcomponent alone (parent aldehyde, aminoguanidine or biocide standard), not the complex; Table 5
compound,measurement,setting,value
"2,4,6-trimethoxybenzaldehyde",MIC (wt %),[1],0.0595 wt %
same,Preservation of the high surfactant manual dish formula,[2],enabled effective preservation
"2,6-dimethoxybenzaldehyde",MIC (wt %),[1],0.0149 wt %
same,Preservation of the high surfactant manual dish formula,[2],enabled effective preservation
2-hydroxyl-4-methoxybenzaldehyde,MIC (wt %),[1],0.0149 wt %
same,Log Reduction in APC formula,[3],1
same,Log Reduction in MDC formula,[3],1
4-hydroxybenzaldehyde,MIC (wt %),[1],0.0298 wt %
same,Preservation of the high surfactant manual dish formula,[2],enabled effective preservation
"COc1ccc(C=O)c(OC)c1 [2,4-dimethoxybenzaldehyde]",Log Reduction in APC formula,[3],6
same,Log Reduction in MDC formula,[3],1
"O=Cc1ccc(C=O)o1 [2,5-furandicarboxaldehyde]",Log Reduction in APC formula,[3],1
same,Log Reduction in MDC formula,[3],1
"O=Cc1ccc(C=O)s1 [2,5-thiophenedicarboxaldehyde]",Log Reduction in APC formula,[3],2
same,Log Reduction in MDC formula,[3],1
O=Cc1cccc(C=O)c1Br [2-bromoisophthalaldehyde],Log Reduction in APC formula,[3],2
same,Log Reduction in MDC formula,[3],1
"Cl.N=C(NN)NN [A, 1,3-diaminoguanidine]",MIC (wt %),Pseudomonas aeruginosa; P. aeruginosa,0.3^i wt %
NC(N)=NN=Cc1ccc(C=NN=C(N)N)cc1 [B + 5],"MIC (wt %) of complex, given as aldehyde component","Pseudomonas aeruginosa; amine + aldehyde combined, amine in excess of 1:1 molar ratio, concentration of aldehyde component, P. aeruginosa",0.01^i wt %
same,"MIC (wt %) of complex, given as amine component","Pseudomonas aeruginosa; amine + aldehyde combined, amine in excess of 1:1 molar ratio, concentration of amine component, P. aeruginosa",0.06^i wt %
Cc1cc(C=NN=C(N)N)c(O)c(C=NN=C(N)N)c1 [B + 10],"MIC (wt %) of complex, given as aldehyde component",Escherichia coli; concentration of aldehyde component,0.002^ii wt %
same,"MIC (wt %) of complex, given as amine component",Escherichia coli; concentration of amine component,0.02^ii wt %
"O=Cc1ccc(C=O)cc1 [Entry 5, terephthalaldehyde]",MIC (wt %),Pseudomonas aeruginosa; P. aeruginosa,0.3^i wt %
"O=Cc1cc(C=O)cc(C=O)c1 [Entry 7, benzene-1,3,5-tricarboxaldehyde]",MIC (wt %),Pseudomonas aeruginosa; P. aeruginosa,0.3^i wt %
same,"Synergism (1/FICI) with B, extrapolated",Pseudomonas aeruginosa; extrapolated from eight FICI measurements where the weight ratio of B:7 varied from 1:1 to 9:1,1000*
aminoguanidine [B],MIC (wt %),Pseudomonas aeruginosa; P. aeruginosa,>2^i wt %
same,MIC (wt %) subcomponent,[4],>0.4762 wt %
glyoxal [Entry 1],MIC (wt %),Pseudomonas aeruginosa; P. aeruginosa,0.04^i wt %
m-anisaldehyde,MIC (wt %),[1],0.0595 wt %
same,Preservation of the high surfactant manual dish formula,[2],enabled effective preservation
vanillin isobutyrate,MIC (wt %),[1],0.1190 wt %
